In ChEMBL document CHEMBL1136368, “Antiviral activity of cyclopentenyl nucleosides against orthopox viruses (Smallpox, monkeypox and cowpox)” (Bioorg Med Chem Lett, 2003):
Converted amounts (≈) assume the structure as drawn.

What was measured:
Vero [1] = tested on: Vero
Vero [2] = tested on: Vero; remark: listed apart in the source
Vero [3] = tested on: Vero; remark: listed apart in the source
Vero [4] = tested on: Vero; remark: listed apart in the source
Vero [5] = tested on: Vero; remark: listed apart in the source
Vero [6] = tested on: Vero; remark: listed apart in the source
Vero [7] = tested on: Vero; remark: listed apart in the source
Vero [8] = tested on: Vero; remark: listed apart in the source
Vero [9] = tested on: Vero; remark: listed apart in the source
Vero [10] = tested on: Vero; remark: listed apart in the source
in vitro [11] = details: monkey, Vero 76 cells (ATCC CRL 1587)
in vitro [12] = details: rhesus monkey, LLC-MK2 cells (ATCC CRL 7)
in vitro [13] = details: rhesus monkey, LLC-MK2 cells (ATCC CRL 7); remark: listed apart in the source
in vitro [14] = details: rhesus monkey, LLC-MK2 cells (ATCC CRL 7); remark: listed apart in the source
in vitro [15] = details: monkey, Vero 76 cells (ATCC CRL 1587); remark: listed apart in the source
in vitro [16] = details: rhesus monkey, LLC-MK2 cells (ATCC CRL 7); remark: listed apart in the source
in vitro [17] = details: monkey, Vero 76 cells (ATCC CRL 1587); remark: listed apart in the source
in vitro [18] = details: rhesus monkey, LLC-MK2 cells (ATCC CRL 7); remark: listed apart in the source
in vitro [19] = details: monkey, Vero 76 cells (ATCC CRL 1587); remark: listed apart in the source
in vitro [20] = details: monkey, Vero 76 cells (ATCC CRL 1587); remark: listed apart in the source

| SMILES | EC50 (Vero [1]) | EC50 (Vero [2]) | EC50 (Vero [3]) | EC50 (Vero [4]) | EC50 (Vero [5]) | IC50 (Vero [6]) | IC50 (Vero [7]) | IC50 (Vero [8]) | IC50 (Vero [9]) | IC50 (Vero [10]) | selectivity ratio (in vitro [11]) | selectivity ratio (in vitro [12]) | selectivity ratio (in vitro [13]) | selectivity ratio (in vitro [14]) | selectivity ratio (in vitro [15]) | selectivity ratio (in vitro [16]) | selectivity ratio (in vitro [17]) | selectivity ratio (in vitro [18]) | selectivity ratio (in vitro [19]) | selectivity ratio (in vitro [20]) |
| --- | --- | --- | --- | --- | --- | --- | --- | --- | --- | --- | --- | --- | --- | --- | --- | --- | --- | --- | --- | --- |
| Nc1ccn([C@@H]2C=C(CO)[C@@H](O)[C@H]2O)c(=O)n1 | 0.05 µg/mL (≈ 0.209 µM) | < 0.05 µg/mL | < 0.05 µg/mL | > 100 µg/mL | 0.04 µg/mL (≈ 0.167 µM) | 1 µg/mL (≈ 4.18 µM) | 4 µg/mL (≈ 16.7 µM) | > 100 µg/mL | 30 µg/mL (≈ 125 µM) | 40 µg/mL (≈ 167 µM) | 0.3 | 100 | 300 | > 166 | > 20 | 210 | > 80 | 550 | > 2000 | 1000 |
| Nc1ncnc2c1ncn2[C@@H]1C=C(CO)[C@@H](O)[C@H]1O [NEOPLANOCIN A] | > 100 µg/mL | 0.21 µg/mL (≈ 0.798 µM) | 0.03 µg/mL (≈ 0.114 µM) | 0.14 µg/mL (≈ 0.532 µM) | > 100 µg/mL | 20 µg/mL (≈ 76 µM) | 57 µg/mL (≈ 217 µM) | 50 µg/mL (≈ 190 µM) |  | > 100 µg/mL | 71 | 360 | 12 | 1 | < 0.2 | 161 | 271 | 230 | 1670 | 1 |
| Nc1nc(=O)n([C@H]2C=C(CO)[C@H](O)[C@@H]2O)cc1F | 1.35 µg/mL (≈ 5.25 µM) | 2.05 µg/mL (≈ 7.97 µM) | 2.63 µg/mL (≈ 10.2 µM) | 1.17 µg/mL (≈ 4.55 µM) | 1.46 µg/mL (≈ 5.68 µM) | > 100 µg/mL | 100 µg/mL (≈ 389 µM) | 39 µg/mL (≈ 152 µM) | 100 µg/mL (≈ 389 µM) | > 100 µg/mL | 86 | > 196 | 189 | 162 | > 74 | > 164 | 49 | > 58 | 15 | > 69 |
| OCC1=C[C@@H](n2cnc3c(O)ncnc32)[C@H](O)[C@@H]1O | > 100 µg/mL | > 100 µg/mL | > 100 µg/mL | > 100 µg/mL | > 100 µg/mL | > 100 µg/mL | > 100 µg/mL | > 100 µg/mL | > 100 µg/mL | > 100 µg/mL |  |  |  |  |  |  |  |  |  |  |
